In patent US20090304692A1, “TRIAZINE COMPOUNDS AS PI3 KINASE AND MTOR INHIBITORS” (Wyeth, priority 2008, published 2009):
Values joined by “and” are separate entries in the source; they are usually repeats but may differ in a detail not shown here. Equal values may be shown once. Read-outs that look alike come from different tables or passages of the source.

Tests used:
PI3K-α = PI3K-α (Homo sapiens, UniProt P42336); assay: PI3K-alpha fluorescence polarization assay; conditions: read-out: IC50 PI3Kα
PI3K-γ = PI3K-γ (Homo sapiens, UniProt P48736); assay: PI3K-gamma fluorescence polarization assay
Human mTOR (FLAG-TOR) = Human mTOR (FLAG-TOR) (Homo sapiens, UniProt P42345); assay: mTOR kinase assay (DELFIA format, purified enzyme); assay type: biochemical; conditions: read-out: IC50 mTOR
Human mTOR (FLAG-TOR), sequence (P42345 1360-2549 limits assumed): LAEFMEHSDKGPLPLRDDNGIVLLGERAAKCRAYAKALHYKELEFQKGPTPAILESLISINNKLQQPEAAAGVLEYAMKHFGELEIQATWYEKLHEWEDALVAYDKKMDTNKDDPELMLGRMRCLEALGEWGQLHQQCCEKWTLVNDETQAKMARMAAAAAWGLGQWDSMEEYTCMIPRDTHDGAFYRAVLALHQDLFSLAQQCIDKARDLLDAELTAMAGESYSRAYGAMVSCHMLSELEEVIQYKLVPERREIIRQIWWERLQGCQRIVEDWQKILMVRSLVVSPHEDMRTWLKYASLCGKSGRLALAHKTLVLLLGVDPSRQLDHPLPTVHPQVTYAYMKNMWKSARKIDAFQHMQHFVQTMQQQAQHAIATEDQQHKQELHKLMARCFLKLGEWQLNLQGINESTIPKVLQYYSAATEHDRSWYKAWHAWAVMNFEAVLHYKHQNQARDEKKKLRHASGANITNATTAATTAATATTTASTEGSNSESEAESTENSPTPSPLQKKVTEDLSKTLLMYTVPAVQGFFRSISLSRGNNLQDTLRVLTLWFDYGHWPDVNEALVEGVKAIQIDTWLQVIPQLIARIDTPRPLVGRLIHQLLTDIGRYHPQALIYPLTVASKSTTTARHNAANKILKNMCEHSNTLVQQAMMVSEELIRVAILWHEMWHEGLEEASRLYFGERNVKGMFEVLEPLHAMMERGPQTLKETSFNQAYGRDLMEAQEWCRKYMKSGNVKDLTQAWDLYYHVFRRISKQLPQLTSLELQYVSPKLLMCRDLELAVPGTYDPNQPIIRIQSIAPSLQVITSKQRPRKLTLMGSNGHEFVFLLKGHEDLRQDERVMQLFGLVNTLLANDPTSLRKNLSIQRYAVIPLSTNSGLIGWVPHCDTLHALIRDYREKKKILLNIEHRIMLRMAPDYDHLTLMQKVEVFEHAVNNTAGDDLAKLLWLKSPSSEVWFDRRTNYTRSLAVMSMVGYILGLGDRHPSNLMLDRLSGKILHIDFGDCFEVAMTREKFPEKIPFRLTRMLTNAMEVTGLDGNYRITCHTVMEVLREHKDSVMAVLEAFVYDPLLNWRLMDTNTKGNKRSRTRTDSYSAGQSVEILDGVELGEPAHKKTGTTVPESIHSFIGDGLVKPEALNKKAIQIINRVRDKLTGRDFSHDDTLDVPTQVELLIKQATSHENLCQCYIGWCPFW

PI3K-α, sequence (P42336 whole entry, species assumed): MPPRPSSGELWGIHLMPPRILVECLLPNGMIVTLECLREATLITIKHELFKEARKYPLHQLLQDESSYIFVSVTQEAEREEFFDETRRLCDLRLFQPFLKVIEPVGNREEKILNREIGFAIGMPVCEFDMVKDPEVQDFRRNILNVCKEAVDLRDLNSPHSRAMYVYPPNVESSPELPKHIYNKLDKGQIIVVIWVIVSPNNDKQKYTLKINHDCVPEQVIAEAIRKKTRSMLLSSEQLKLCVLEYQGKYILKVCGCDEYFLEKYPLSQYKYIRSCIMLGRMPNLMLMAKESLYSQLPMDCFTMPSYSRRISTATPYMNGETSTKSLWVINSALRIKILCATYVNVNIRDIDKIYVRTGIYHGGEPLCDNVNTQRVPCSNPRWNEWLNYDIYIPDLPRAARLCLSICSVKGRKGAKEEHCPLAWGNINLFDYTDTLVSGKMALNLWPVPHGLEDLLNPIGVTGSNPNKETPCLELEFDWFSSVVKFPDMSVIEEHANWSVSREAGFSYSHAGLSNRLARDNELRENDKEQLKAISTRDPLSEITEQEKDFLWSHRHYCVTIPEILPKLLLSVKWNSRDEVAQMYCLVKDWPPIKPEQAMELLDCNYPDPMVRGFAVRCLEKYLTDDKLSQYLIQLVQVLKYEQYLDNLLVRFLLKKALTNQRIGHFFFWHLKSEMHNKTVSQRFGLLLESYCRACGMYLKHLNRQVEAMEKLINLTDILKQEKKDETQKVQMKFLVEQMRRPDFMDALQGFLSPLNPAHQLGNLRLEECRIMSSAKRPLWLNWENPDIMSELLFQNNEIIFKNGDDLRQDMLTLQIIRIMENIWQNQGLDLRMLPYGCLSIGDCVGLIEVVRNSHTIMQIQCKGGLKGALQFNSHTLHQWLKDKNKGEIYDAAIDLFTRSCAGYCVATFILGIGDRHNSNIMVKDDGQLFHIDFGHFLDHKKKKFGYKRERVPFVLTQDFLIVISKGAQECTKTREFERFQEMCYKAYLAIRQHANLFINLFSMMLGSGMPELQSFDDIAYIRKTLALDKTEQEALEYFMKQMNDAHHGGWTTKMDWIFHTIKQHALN
PI3K-α, sequence (P27986 whole entry partner, species assumed): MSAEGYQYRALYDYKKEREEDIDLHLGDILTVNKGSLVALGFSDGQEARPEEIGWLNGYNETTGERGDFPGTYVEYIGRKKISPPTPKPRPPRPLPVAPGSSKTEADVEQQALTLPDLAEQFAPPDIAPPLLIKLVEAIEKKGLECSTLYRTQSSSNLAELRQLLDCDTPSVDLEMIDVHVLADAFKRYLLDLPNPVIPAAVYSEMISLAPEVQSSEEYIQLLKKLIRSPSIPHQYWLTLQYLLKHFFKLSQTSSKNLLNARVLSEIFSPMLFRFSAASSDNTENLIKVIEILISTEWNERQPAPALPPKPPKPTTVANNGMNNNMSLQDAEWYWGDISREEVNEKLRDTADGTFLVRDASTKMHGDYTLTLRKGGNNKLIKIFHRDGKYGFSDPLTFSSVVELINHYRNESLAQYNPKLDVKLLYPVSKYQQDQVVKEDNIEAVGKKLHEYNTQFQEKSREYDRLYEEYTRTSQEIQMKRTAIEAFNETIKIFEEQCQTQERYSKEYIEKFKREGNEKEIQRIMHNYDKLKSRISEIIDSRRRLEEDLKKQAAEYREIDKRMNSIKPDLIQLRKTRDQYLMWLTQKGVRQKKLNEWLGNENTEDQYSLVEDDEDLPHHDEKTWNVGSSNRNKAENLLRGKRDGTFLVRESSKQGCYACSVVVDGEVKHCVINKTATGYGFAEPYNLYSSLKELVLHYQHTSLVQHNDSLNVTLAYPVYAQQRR
PI3K-γ, sequence (P48736 whole entry, species assumed): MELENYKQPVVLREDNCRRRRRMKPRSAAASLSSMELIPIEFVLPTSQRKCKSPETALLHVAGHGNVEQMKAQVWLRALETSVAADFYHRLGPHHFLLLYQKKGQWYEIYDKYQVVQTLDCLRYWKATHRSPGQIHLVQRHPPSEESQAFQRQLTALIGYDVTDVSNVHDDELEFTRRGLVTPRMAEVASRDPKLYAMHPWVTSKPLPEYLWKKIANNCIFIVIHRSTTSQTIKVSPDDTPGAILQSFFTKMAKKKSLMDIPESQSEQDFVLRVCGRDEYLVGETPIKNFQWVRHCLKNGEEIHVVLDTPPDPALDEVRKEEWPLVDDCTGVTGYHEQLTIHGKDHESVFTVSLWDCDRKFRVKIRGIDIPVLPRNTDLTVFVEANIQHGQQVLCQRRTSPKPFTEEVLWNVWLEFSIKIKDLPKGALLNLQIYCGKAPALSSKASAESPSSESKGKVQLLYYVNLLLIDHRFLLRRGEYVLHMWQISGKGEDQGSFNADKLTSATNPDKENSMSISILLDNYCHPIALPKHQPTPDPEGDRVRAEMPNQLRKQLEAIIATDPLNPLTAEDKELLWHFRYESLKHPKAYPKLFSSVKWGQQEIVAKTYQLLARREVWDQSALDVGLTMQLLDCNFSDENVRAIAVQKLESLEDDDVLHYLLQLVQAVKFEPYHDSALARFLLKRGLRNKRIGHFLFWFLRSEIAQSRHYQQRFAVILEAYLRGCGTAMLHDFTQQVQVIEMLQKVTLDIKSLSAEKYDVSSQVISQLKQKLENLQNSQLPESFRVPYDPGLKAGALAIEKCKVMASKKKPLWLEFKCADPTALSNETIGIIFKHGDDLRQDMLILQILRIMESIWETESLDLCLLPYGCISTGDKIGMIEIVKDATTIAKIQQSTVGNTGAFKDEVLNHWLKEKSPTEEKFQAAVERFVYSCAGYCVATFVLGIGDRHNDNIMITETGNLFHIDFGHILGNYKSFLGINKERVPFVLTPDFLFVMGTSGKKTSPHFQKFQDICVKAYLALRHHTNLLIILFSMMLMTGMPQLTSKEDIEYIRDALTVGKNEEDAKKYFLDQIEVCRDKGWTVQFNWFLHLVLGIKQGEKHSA

`CCN1CCN(C(=O)c2ccc(NC(=O)Nc3ccc(-c4nc(N5CCOCC5)nc(N5CCCN(C(C)C)CC5)n4)cc3)cc2)CC1` [Example 662, 1-{4-[(4-ethylpiperazin-1-yl)carbonyl]phenyl}-3-(4-{4-[4-(1-methylethyl)-1,4-diazepan-1-yl]-6-morpholin-4-yl-1,3,5-triazin-2-yl}phenyl)urea] gave an IC50 (PI3K-α) of 34.3 nM, an IC50 (PI3K-γ; read-out: IC50 PI3Kγ) of 197 nM and an IC50 (Human mTOR (FLAG-TOR)) of 770 nM.
For `CN(C)CCN1CCN(C(=O)c2ccc(NC(=O)Nc3ccc(-c4nc(N5CCOCC5)nc(N5CCOCC5)n4)cc3)cc2)CC1` [Example 168, 1-[4-({4-[2-(dimethylamino)ethyl]piperazin-1-yl}carbonyl)phenyl]-3-[4-(4,6-dimorpholin-4-yl-1,3,5-triazin-2-yl)phenyl]urea], the IC50 (PI3K-α) was 1 nM, the IC50 (PI3K-γ; read-out: IC50 PI3Kγ) was 3 nM and the IC50 (Human mTOR (FLAG-TOR)) was 3.6 nM.
`CN1CCN(C(=O)c2ccc(NC(=O)Nc3ccc(-c4nc(N5CCOCC5)nc(N5C6CCC5COC6)n4)cc3)cc2)CC1(C)C` [Example 837, 1-{4-[4-(morpholin-4-yl)-6-(3-oxa-8-azabicyclo[3.2.1]oct-8-yl)-1,3,5-triazin-2-yl]phenyl}-3-{4-[(3,3,4-trimethylpiperazin-1-yl)carbonyl]phenyl}urea] gave an IC50 (PI3K-α) of 3.7 nM, an IC50 (PI3K-γ; read-out: IC50 PI3Kγ) of 19.5 nM and an IC50 (Human mTOR (FLAG-TOR)) of 515 nM.
`CN(C)CCNC(=O)Nc1ccc(-c2nc(N3CCOCC3)nc(N3CCC4(CC3)OCCO4)n2)cc1` [Example 46, 1-[2-(dimethylamino)ethyl]-3-{4-[4-(1,4-dioxa-8-azaspiro[4.5]dec-8-yl)-6-morpholin-4-yl-1,3,5-triazin-2-yl]phenyl}urea] showed an IC50 (PI3K-α; listed as 136) of 208 nM, an IC50 (PI3K-α; listed as 711) of 208 nM and an IC50 (PI3K-γ; read-out: IC50 PI3Kγ, listed as 136) of 4920 nM. The IC50 (PI3K-γ; read-out: IC50 PI3Kγ, listed as 711) was 4920 nM and the IC50 (Human mTOR (FLAG-TOR)) was 24 nM and 20 nM.
For `O=C(NCCO)Nc1ccc(-c2nc(N3CCOCC3)nc(N3C4CCC3COC4)n2)cc1` [Example 45, 1-(2-hydroxyethyl)-3-{4-[4-morpholin-4-yl-6-(3-oxa-8-azabicyclo[3.2.1]oct-8-yl)-1,3,5-triazin-2-yl]phenyl}urea], the IC50 (PI3K-α) was 504 nM, the IC50 (PI3K-γ; read-out: IC50 PI3Kγ) was 2080 nM and the IC50 (Human mTOR (FLAG-TOR)) was 3.6 nM.
With `CCCC1CCN(C(=O)c2ccc(NC(=O)Nc3ccc(-c4nc(N5CCOC[C@@H]5C)nc(N5CCOC[C@@H]5C)n4)cc3)cc2)CC1` [Example 636, 1-(4-{4,6-bis[(3S)-3-methylmorpholin-4-yl]-1,3,5-triazin-2-yl}phenyl)-3-{4-[(4-propylpiperidin-1-yl)carbonyl]phenyl}urea] the IC50 (PI3K-α) was 231 nM, the IC50 (PI3K-γ; read-out: IC50 PI3Kγ) was 468 nM and the IC50 (Human mTOR (FLAG-TOR)) was 27 nM.
For `Cc1ccc(-c2nc(-c3ccc(NC(=O)Nc4cccc(C(=O)N(C)CCN(C)C)c4)cc3)nc(N3CCOCC3)n2)cc1` [Example 580, N-[2-(dimethylamino)ethyl]-N-methyl-3-[({4-[4-(4-methylphenyl)-6-morpholin-4-yl-1,3,5-triazin-2-yl]phenyl}carbamoyl)amino]benzamide], the IC50 (PI3K-α) was 465 nM, the IC50 (PI3K-γ; read-out: IC50 PI3Kγ) was 1320 nM and the IC50 (Human mTOR (FLAG-TOR)) was 100 nM.
Work on `CN1CC2CN(c3nc(-c4ccc(NC(=O)Nc5ccncc5)cc4)nc(N4CCOCC4)n3)CC(C1)O2` [Example 291, 1-{4-[4-(7-methyl-9-oxa-3,7-diazabicyclo[3.3.1]non-3-yl)-6-morpholin-4-yl-1,3,5-triazin-2-yl]phenyl}-3-pyridin-4-ylurea] yielded an IC50 (PI3K-α) of 368 nM, an IC50 (PI3K-γ; read-out: IC50 PI3Kγ) of 711 nM and an IC50 (Human mTOR (FLAG-TOR)) of 190 nM.
`CCc1nc(-c2ccc(NC(=O)Nc3cccc(C(=O)N4CCN(c5ccccn5)CC4)c3)cc2)nc(N2CCOCC2)n1` [Example 587, 1-[4-(4-ethyl-6-morpholin-4-yl-1,3,5-triazin-2-yl)phenyl]-3-{3-[(4-pyridin-2-ylpiperazin-1-yl)carbonyl]phenyl}urea] showed an IC50 (PI3K-α) of 350 nM, an IC50 (PI3K-γ; read-out: IC50 PI3Kγ) of 675 nM and an IC50 (Human mTOR (FLAG-TOR)) of 100 nM.
With `CC(=O)N1CC2CN(c3nc(-c4ccc(NC(=O)Nc5ccncc5)cc4)nc(N4CCOCC4)n3)CC(C1)O2` [Example 292, 1-{4-[4-(7-acetyl-9-oxa-3,7-diazabicyclo[3.3.1]non-3-yl)-6-morpholin-4-yl-1,3,5-triazin-2-yl]phenyl}-3-pyridin-4-ylurea] the IC50 (PI3K-α) was 1500 nM, the IC50 (PI3K-γ; read-out: IC50 PI3Kγ) was 3690 nM and the IC50 (Human mTOR (FLAG-TOR)) was 70 nM and 68 nM.
Compound `CCc1nc(-c2ccc(NC(=O)Nc3cccc(C(=O)N4CCN(C)CC4)c3)cc2)nc(N2CCOCC2)n1` [Example 589, 1-[4-(4-ethyl-6-morpholin-4-yl-1,3,5-triazin-2-yl)phenyl]-3-{3-[(4-methylpiperazin-1-yl)carbonyl]phenyl}urea] has an IC50 (PI3K-α) of 718 nM, an IC50 (PI3K-γ; read-out: IC50 PI3Kγ) of 1620 nM and an IC50 (Human mTOR (FLAG-TOR)) of 57 nM.
`COC(=O)c1ccc(NC(=O)Nc2ccc(-c3nc(N4CCCCC4)nc(N4CCOCC4)n3)cc2)cc1` [Example 591, methyl 4-({[4-(4-morpholin-4-yl-6-piperidin-1-yl-1,3,5-triazin-2-yl)phenyl]carbamoyl}amino)benzoate] gave an IC50 (PI3K-α) of 250 nM, an IC50 (PI3K-γ; read-out: IC50 PI3Kγ) of 726 nM and an IC50 (Human mTOR (FLAG-TOR)) of 33 nM.
For `COC(=O)c1cccc(NC(=O)Nc2ccc(-c3nc(-c4ccc(C)cc4)nc(N4CCOCC4)n3)cc2)c1` [Example 578, methyl 3-[({4-[4-(4-methylphenyl)-6-morpholin-4-yl-1,3,5-triazin-2-yl]phenyl}carbamoyl)amino]benzoate], the IC50 (PI3K-α) was 2410 nM, the IC50 (PI3K-γ; read-out: IC50 PI3Kγ) was 2510 nM and the IC50 (Human mTOR (FLAG-TOR)) was 2100 nM.
`COC(=O)c1ccc(NC(=O)Nc2ccc(-c3nc(-c4ccc(C)cc4)nc(N4CCOCC4)n3)cc2)cc1` [Example 344, methyl 4-[({4-[4-(4-methylphenyl)-6-morpholin-4-yl-1,3,5-triazin-2-yl]phenyl}carbamoyl)amino]benzoate] showed an IC50 (PI3K-α) of 1610 nM, an IC50 (PI3K-α; listed as 528) of 1610 nM and an IC50 (PI3K-γ; read-out: IC50 PI3Kγ) of 4140 nM. The IC50 (Human mTOR (FLAG-TOR)) was 1500 nM and 1600 nM.
“N-[2-(dimethylamino)ethyl]-N-methyl-4-[({4-[4-morpholin-4-yl-6-(tetrahydro-2H-pyran-4-yl)-1,3,5-triazin-2-yl]phenyl}carbamoyl)amino]benzamide [Example 524]” gave an IC50 (PI3K-α) of 0.8 nM, an IC50 (PI3K-γ; read-out: IC50 PI3Kγ) of 10 nM and an IC50 (Human mTOR (FLAG-TOR)) of 0.26 nM.
Work on `O=C(Nc1ccncc1)Nc1ccc(-c2nc(N3CCOCC3)nc(N3C4COCC3[C@H](OCc3ccccc3)C4)n2)cc1` (stereo partly drawn) [Example 821, 1-(4-{4-[(6R)-6-(benzyloxy)-3-oxa-8-azabicyclo[3.2.1]oct-8-yl]-6-morpholin-4-yl-1,3,5-triazin-2-yl}phenyl)-3-pyridin-4-ylurea] yielded an IC50 (PI3K-α) of 9.3 nM, an IC50 (PI3K-γ; read-out: IC50 PI3Kγ) of 58.3 nM and an IC50 (Human mTOR (FLAG-TOR)) of 3.4 nM.
`O=C(Nc1ccc(-c2nc(N3CCOCC3)nc(N3CCOCC3)n2)cc1)Nc1ccc(C(F)(F)F)cn1` [Example 55, 1-[4-(4,6-dimorpholin-4-yl-1,3,5-triazin-2-yl)phenyl]-3-[5-(trifluoromethyl)pyridin-2-yl]urea] was tested, and the IC50 (PI3K-α) was 205 nM, the IC50 (PI3K-γ; read-out: IC50 PI3Kγ) was 1580 nM and the IC50 (Human mTOR (FLAG-TOR)) was 50 nM.
Work on `Cc1ccc(-c2nc(-c3ccc(NC(=O)Nc4ccncc4)cc3)nc(N3CCOCC3)n2)cc1` [Example 340, 1-{4-[4-(4-methylphenyl)-6-morpholin-4-yl-1,3,5-triazin-2-yl]phenyl}-3-pyridin-4-ylurea] yielded an IC50 (PI3K-α) of 92 nM, an IC50 (PI3K-γ; read-out: IC50 PI3Kγ) of 706 nM and an IC50 (PI3K-γ; read-out: IC50 PI3Kγ, listed as 530) of 706 nM. For the same compound, the IC50 (Human mTOR (FLAG-TOR)) was 46 nM and 49.5 nM.
Compound `C[C@H]1COCCN1c1nc(-c2ccc(NC(=O)Nc3ccncc3)cc2)nc(N2C3CCC2COC3)n1` [Example 829, 1-(4-{4-[(3S)-3-methylmorpholin-4-yl]-6-(3-oxa-8-azabicyclo[3.2.1]oct-8-yl)-1,3,5-triazin-2-yl}phenyl)-3-pyridin-4-ylurea] has an IC50 (PI3K-α) of 10.5 nM, an IC50 (PI3K-γ; read-out: IC50 PI3Kγ) of 188 nM and an IC50 (Human mTOR (FLAG-TOR)) of 520 nM.
In the case of `C[C@H]1COCCN1c1nc(-c2ccc(NC(=O)Nc3ccc(C(=O)N(C)CCN(C)C)cc3)cc2)nc(N2C3CCC2COC3)n1` [Example 831, N-[2-(dimethylamino)ethyl]-N-methyl-4-{[(4-{4-[(3S)-3-methylmorpholin-4-yl]-6-(3-oxa-8-azabicyclo[3.2.1]oct-8-yl)-1,3,5-triazin-2-yl}phenyl)carbamoyl]amino}benzamide], the IC50 (PI3K-α) is reported as 3.3 nM, the IC50 (PI3K-γ; read-out: IC50 PI3Kγ) is reported as 87.5 nM and the IC50 (Human mTOR (FLAG-TOR)) is reported as 265 nM.
With `CS(=O)(=O)N1CC2CN(c3nc(-c4ccc(NC(=O)Nc5ccncc5)cc4)nc(N4CCOCC4)n3)CC(C1)O2` [Example 293, 1-(4-{4-[7-(methylsulfonyl)-9-oxa-3,7-diazabicyclo[3.3.1]non-3-yl]-6-morpholin-4-yl-1,3,5-triazin-2-yl}phenyl)-3-pyridin-4-yl urea] the IC50 (PI3K-α) was 764 nM, the IC50 (PI3K-γ; read-out: IC50 PI3Kγ) was 533 nM and the IC50 (Human mTOR (FLAG-TOR)) was 500 nM and 470 nM.
`CCc1nc(-c2ccc(NC(=O)Nc3cccc(C(=O)O)c3)cc2)nc(N2CCOCC2)n1` [Example 585, 3-({[4-(4-ethyl-6-morpholin-4-yl-1,3,5-triazin-2-yl)phenyl]carbamoyl}amino)benzoic acid] gave an IC50 (PI3K-α) of 65 nM, an IC50 (PI3K-γ; read-out: IC50 PI3Kγ) of 131 nM and an IC50 (Human mTOR (FLAG-TOR)) of 12 nM.
`CCS(=O)(=O)N1CCN(c2nc(-c3ccc(NC(=O)Nc4ccc(C(=O)NCCCN(C)C)cc4)cc3)nc(N3CCOCC3)n2)CC1` [Example 653, N-[3-(dimethylamino)propyl]-4-{[(4-{4-[4-(ethylsulfonyl)piperazin-1-yl]-6-morpholin-4-yl-1,3,5-triazin-2-yl}phenyl)carbamoyl]amino}benzamide] showed an IC50 (PI3K-α) of 4.1 nM, an IC50 (PI3K-γ; read-out: IC50 PI3Kγ) of 34 nM and an IC50 (Human mTOR (FLAG-TOR)) of 7 nM.
With `C[C@H]1COCCN1c1nc(-c2ccc(NC(=O)Nc3ccc(C(=O)N4CC[C@@H](N(C)C)C4)cc3)cc2)nc(N2C3CCC2COC3)n1` [Example 833, 1-(4-{[(3R)-3-(dimethylamino)pyrrolidin-1-yl]carbonyl}phenyl)-3-(4-{4-[(3S)-3-methylmorpholin-4-yl]-6-(3-oxa-8-azabicyclo[3.2.1]oct-8-yl)-1,3,5-triazin-2-yl}phenyl)urea] the IC50 (PI3K-α) was 5.6 nM, the IC50 (PI3K-γ; read-out: IC50 PI3Kγ) was 81.5 nM and the IC50 (Human mTOR (FLAG-TOR)) was 185 nM.
For `Nc1ccc(-c2nc(N3CCOCC3)nc(N3C4CCC3COC4)n2)cc1` [Example 33, 4-[4-morpholin-4-yl-6-(3-oxa-8-azabicyclo[3.2.1]oct-8-yl)-1,3,5-triazin-2-yl]aniline], the IC50 (PI3K-α) was 2550 nM, the IC50 (PI3K-γ) was > 10000 nM and the IC50 (Human mTOR (FLAG-TOR)) was 91 nM.
